From PubChem BioAssay (NCI)
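Values below derive from 48-hour exposures of cells grown in 96-well plates, with endpoints linearly interpolated between the two concentrations bracketing the appropriate inhibition level. TGI is the concentration that stops growth completely.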

Assays:
Assay in all cases: NCI-60 cell line screen, 48 h
HCT-116 colon = test system: HCT-116 colon
SN12C renal = test system: SN12C renal
UACC-62 melanoma = test system: UACC-62 melanoma
SK-MEL-28 melanoma = test system: SK-MEL-28 melanoma
U251 CNS = test system: U251 CNS
UACC-257 melanoma = test system: UACC-257 melanoma
KM20L2 colon = test system: KM20L2 colon
HT29 colon = test system: HT29 colon
NCI-H522 lung = test system: NCI-H522 lung
SF-539 CNS = test system: SF-539 CNS
OVCAR-4 ovarian = test system: OVCAR-4 ovarian
HCT-15 colon = test system: HCT-15 colon
CAKI-1 renal = test system: CAKI-1 renal
786-0 renal = test system: 786-0 renal
RXF 393 renal = test system: RXF 393 renal
SR leukemia = test system: SR leukemia
DMS 273 small cell lung = test system: DMS 273 small cell lung
SW-620 colon = test system: SW-620 colon
MALME-3M melanoma = test system: MALME-3M melanoma
CCRF-CEM leukemia = test system: CCRF-CEM leukemia
TK-10 renal = test system: TK-10 renal
NCI-H226 lung = test system: NCI-H226 lung
DLD-1 colon = test system: DLD-1 colon
NCI-H23 lung = test system: NCI-H23 lung
UO-31 renal = test system: UO-31 renal
K-562 leukemia = test system: K-562 leukemia
M19-MEL melanoma = test system: M19-MEL melanoma
SF-295 CNS = test system: SF-295 CNS
COLO 205 colon = test system: COLO 205 colon
SNB-78 CNS = test system: SNB-78 CNS
HCC-2998 colon = test system: HCC-2998 colon
OVCAR-8 ovarian = test system: OVCAR-8 ovarian
IGROV1 ovarian = test system: IGROV1 ovarian
ACHN renal = test system: ACHN renal
SK-OV-3 ovarian = test system: SK-OV-3 ovarian
HL-60(TB) leukemia = test system: HL-60(TB) leukemia
A498 renal = test system: A498 renal
KM12 colon = test system: KM12 colon
SNB-75 CNS = test system: SNB-75 CNS
SK-MEL-5 melanoma = test system: SK-MEL-5 melanoma
MOLT-4 leukemia = test system: MOLT-4 leukemia
EKVX NSCLC = test system: EKVX NSCLC
OVCAR-3 ovarian = test system: OVCAR-3 ovarian
NCI-H460 lung = test system: NCI-H460 lung
LOX IMVI melanoma = test system: LOX IMVI melanoma
RPMI-8226 leukemia = test system: RPMI-8226 leukemia
SF-268 CNS = test system: SF-268 CNS
OVCAR-5 ovarian = test system: OVCAR-5 ovarian
HOP-62 NSCLC = test system: HOP-62 NSCLC
RXF-631 renal = test system: RXF-631 renal
SNB-19 CNS = test system: SNB-19 CNS
SK-MEL-2 melanoma = test system: SK-MEL-2 melanoma
DMS 114 small cell lung = test system: DMS 114 small cell lung
A549 NSCLC = test system: A549 NSCLC
M14 melanoma = test system: M14 melanoma

Measured: TGI

CC(C)CC(N=Cc1nc(-c2ccccc2)oc1O)C(=O)O (stereo not given)
> 100 µM: HCT-116 colon | SN12C renal | UACC-62 melanoma | SK-MEL-28 melanoma | U251 CNS | UACC-257 melanoma | KM20L2 colon | HT29 colon | NCI-H522 lung | SF-539 CNS | OVCAR-4 ovarian | HCT-15 colon | CAKI-1 renal | 786-0 renal | RXF 393 renal | SR leukemia | DMS 273 small cell lung | SW-620 colon | MALME-3M melanoma | CCRF-CEM leukemia | TK-10 renal | NCI-H226 lung | DLD-1 colon | NCI-H23 lung | UO-31 renal | K-562 leukemia | M19-MEL melanoma | SF-295 CNS | COLO 205 colon | SNB-78 CNS | HCC-2998 colon | OVCAR-8 ovarian | IGROV1 ovarian | ACHN renal | SK-OV-3 ovarian | HL-60(TB) leukemia | A498 renal | KM12 colon | SNB-75 CNS | SK-MEL-5 melanoma | MOLT-4 leukemia | EKVX NSCLC | OVCAR-3 ovarian | NCI-H460 lung | LOX IMVI melanoma | RPMI-8226 leukemia | SF-268 CNS | OVCAR-5 ovarian | HOP-62 NSCLC | RXF-631 renal | SNB-19 CNS | SK-MEL-2 melanoma | DMS 114 small cell lung | A549 NSCLC | M14 melanoma
